Values joined by “and” are separate entries in the source; they are usually repeats but may differ in a detail not shown here. Equal entries are not always repeated.
Tests used:
WT luciferase [1] = target: T1, WT luciferase (Photinus pyralis, UniProt P08659); assay type: biochemical; settings: for Wavelength at Max. Emission: Table 2
T1 construct: The full firefly (Photinus pyralis) luciferase gene was PCR amplified from pGL3 (Promega); GST (N, cleaved yes); made in house; host or cells: E. coli JM109
Method: (§1) Purified mutant luciferases were used in bioluminescence emission and burst kinetics scans. Each purified protein in 20 mM Tris pH 7.6, 0.1 mM EDTA, 1 mM TCEP and 0.4 mg/mL BSA was added to 2× substrate in 20 mM Tris pH 7.6, 0.1 mM EDTA, 8 mM MgSO4, 4 mM ATP, and 1 mM TCEP in a cuvette.
(§2) Luciferase was rapidly injected into a cuvette containing substrate, and the emission from 400-800 nm was recorded in a SPEX FluoroMax-3 fluorimeter with closed excitation slits.

R218K + L342A luciferase = target: T2, R218K + L342A luciferase (Photinus pyralis, UniProt P08659, L342A/R218K); assay type: biochemical
T2 construct: The full firefly (Photinus pyralis) luciferase gene was PCR amplified from pGL3 (Promega); GST (N, cleaved yes); made in house; host or cells: E. coli JM109
Method: as §1, §2

WT luciferase [2] = target: T1, WT luciferase; test: Titration assay with purified protein; assay type: biochemical
Method: (§3) The PCR product was cloned into the BamH1 and NotI sites of pGEX6P-1 for bacterial expression. Mutant proteins were created using the Quickchange site-directed mutagenesis kit (Stratagene). Saturating mutagenesis was performed using the used the degenerate codon NNK at sites predicted to impact or alter substrate biding including F247, T251, L286, S347, R337, R218, Q338, Y340, A313, and I351 using the degenerate codon NNK. The point mutants S347A, L286A, A348G, E311A, I351A, A313G, R337A, H245A and L342A were made independently.
(§4) Luminescence assays in 96-well plates were initiated by adding 30 μL 2× substrate in 20 mM Tris pH 7.6, 0.1 mM EDTA, 8 mM MgSO4, 4 mM ATP, and 1 mM TCEP to 30 μL of 20 nM purified luciferase in 20 mM Tris pH 7.6, 0.1 mM EDTA, 1 mM TCEP and 0.4 mg/mL BSA. Titration assays were performed 3 minutes post-substrate addition in a Turner Veritas luminometer with final substrate concentrations ranging from 0.122-250 μM or 0.244-500 μM.

T251S mutant luciferase = target: T3, T251S mutant luciferase (Photinus pyralis, UniProt P08659, T251S); test: Titration assay with purified protein; assay type: biochemical
T3 construct: The full firefly (Photinus pyralis) luciferase gene was PCR amplified from pGL3 (Promega); GST (N, cleaved yes); made in house; host or cells: E. coli JM109
Method: as §3, with “NNK.” for “NNK. The point mutants S347A, L286A, A348G, E311A, I351A, A313G, R337A, H245A and L342A were made independently.”
(§5) Luminescence assays in 96-well plates were initiated by adding 30 μL 2× substrate in 20 mM Tris pH 7.6, 0.1 mM EDTA, 8 mM MgSO4, 4 mM ATP, and 1 mM TCEP to 30 μL of 20 nM purified luciferase in 20 mM Tris pH 7.6, 0.1 mM EDTA, 1 mM TCEP and 0.4 mg/mL BSA.

L286M mutant luciferase = target: T4, L286M mutant luciferase (Photinus pyralis, UniProt P08659, L286M); test: Titration assay with purified protein; assay type: biochemical
T4 construct: The full firefly (Photinus pyralis) luciferase gene was PCR amplified from pGL3 (Promega); GST (N, cleaved yes); made in house; host or cells: E. coli JM109
Method: as §3, with “NNK.” for “NNK. The point mutants S347A, L286A, A348G, E311A, I351A, A313G, R337A, H245A and L342A were made independently.”
as §5

R218K mutant luciferase = target: T5, R218K mutant luciferase (Photinus pyralis, UniProt P08659, R218K); assay type: biochemical; settings: R218K luciferase, purified protein
T5 construct: The full firefly (Photinus pyralis) luciferase gene was PCR amplified from pGL3 (Promega); GST (N, cleaved yes); made in house; host or cells: E. coli JM109
Method: as §3, with “NNK.” for “NNK. The point mutants S347A, L286A, A348G, E311A, I351A, A313G, R337A, H245A and L342A were made independently.”
as §5

S347A mutant luciferase = target: T6, S347A mutant luciferase (Photinus pyralis, UniProt P08659, S347A); assay type: biochemical; settings: for Apparent Vmax: purified protein
T6 construct: The full firefly (Photinus pyralis) luciferase gene was PCR amplified from pGL3 (Promega); GST (N, cleaved yes); made in house; host or cells: E. coli JM109
Method: as §3, with “NNK.” for “NNK. The point mutants S347A, L286A, A348G, E311A, I351A, A313G, R337A, H245A and L342A were made independently.”
as §5

S347A luciferase = target: T7, S347A luciferase (Photinus pyralis, UniProt P08659, S347A); test: Bioluminescence emission scan; assay type: biochemical
T7 construct: The full firefly (Photinus pyralis) luciferase gene was PCR amplified from pGL3 (Promega); GST (N, cleaved yes); made in house; host or cells: E. coli JM109
Method: (§6) Purified mutant luciferases were used in bioluminescence emission and burst kinetics scans.
as §2

F247L L286M luciferase = target: T8, F247L L286M luciferase (Photinus pyralis, UniProt P08659, F247L/L286M); test: Bioluminescence emission scan; assay type: biochemical
T8 construct: The full firefly (Photinus pyralis) luciferase gene was PCR amplified from pGL3 (Promega); GST (N, cleaved yes); made in house; host or cells: E. coli JM109
Method: as §6, §2

T251S L286M luciferase = target: T9, T251S L286M luciferase (Photinus pyralis, UniProt P08659, L286M/T251S); test: Bioluminescence emission scan; assay type: biochemical
T9 construct: The full firefly (Photinus pyralis) luciferase gene was PCR amplified from pGL3 (Promega); GST (N, cleaved yes); made in house; host or cells: E. coli JM109
Method: as §6, §2

L342A luciferase = target: T10, L342A luciferase (Photinus pyralis, UniProt P08659, L342A); test: Bioluminescence emission scan; assay type: biochemical
T10 construct: The full firefly (Photinus pyralis) luciferase gene was PCR amplified from pGL3 (Promega); GST (N, cleaved yes); made in house; host or cells: E. coli JM109
Method: as §6, §2

R218K luciferase = target: T11, R218K luciferase (Photinus pyralis, UniProt P08659, R218K); test: Bioluminescence emission scan; assay type: biochemical
T11 construct: The full firefly (Photinus pyralis) luciferase gene was PCR amplified from pGL3 (Promega); GST (N, cleaved yes); made in house; host or cells: E. coli JM109
Method: as §6, §2

S347T luciferase = target: T12, S347T luciferase (Photinus pyralis, UniProt P08659, S347T); test: Bioluminescence emission scan; assay type: biochemical
T12 construct: The full firefly (Photinus pyralis) luciferase gene was PCR amplified from pGL3 (Promega); GST (N, cleaved yes); made in house; host or cells: E. coli JM109
Method: as §6, §2

L286M + S347A luciferase = target: T13, L286M + S347A luciferase (Photinus pyralis, UniProt P08659, L286M/S347A); test: Bioluminescence emission scan; assay type: biochemical
T13 construct: The full firefly (Photinus pyralis) luciferase gene was PCR amplified from pGL3 (Promega); GST (N, cleaved yes); made in house; host or cells: E. coli JM109
Method: as §6, §2

F247L mutant luciferase = F247L mutant luciferase (Photinus pyralis, UniProt P08659, F247L); settings: F247L mutant relative to wild-type luciferase
Method: as §3, §4

F247R luciferase = target: T14, F247R luciferase (Photinus pyralis, UniProt P08659, F247R); test: Bioluminescence emission scan; assay type: biochemical
T14 construct: The full firefly (Photinus pyralis) luciferase gene was PCR amplified from pGL3 (Promega); GST (N, cleaved yes); made in house; host or cells: E. coli JM109
Method: as §6, §2

F247V luciferase = target: T15, F247V luciferase (Photinus pyralis, UniProt P08659, F247V); test: Bioluminescence emission scan; assay type: biochemical
T15 construct: The full firefly (Photinus pyralis) luciferase gene was PCR amplified from pGL3 (Promega); GST (N, cleaved yes); made in house; host or cells: E. coli JM109
Method: as §6, §2

L286Y luciferase = target: T16, L286Y luciferase (Photinus pyralis, UniProt P08659, L286Y); test: Bioluminescence emission scan; assay type: biochemical
T16 construct: The full firefly (Photinus pyralis) luciferase gene was PCR amplified from pGL3 (Promega); GST (N, cleaved yes); made in house; host or cells: E. coli JM109
Method: as §6, §2

T251Q luciferase = target: T17, T251Q luciferase (Photinus pyralis, UniProt P08659, T251Q); test: Bioluminescence emission scan; assay type: biochemical
T17 construct: The full firefly (Photinus pyralis) luciferase gene was PCR amplified from pGL3 (Promega); GST (N, cleaved yes); made in house; host or cells: E. coli JM109
Method: as §6, §2

F247S luciferase = target: T18, F247S luciferase (Photinus pyralis, UniProt P08659, F247S); test: Bioluminescence emission scan; assay type: biochemical
T18 construct: The full firefly (Photinus pyralis) luciferase gene was PCR amplified from pGL3 (Promega); GST (N, cleaved yes); made in house; host or cells: E. coli JM109
Method: as §6, §2

T251N luciferase = target: T19, T251N luciferase (Photinus pyralis, UniProt P08659, T251N); test: Bioluminescence emission scan; assay type: biochemical
T19 construct: The full firefly (Photinus pyralis) luciferase gene was PCR amplified from pGL3 (Promega); GST (N, cleaved yes); made in house; host or cells: E. coli JM109
Method: as §6, §2

F247A luciferase = target: T20, F247A luciferase (Photinus pyralis, UniProt P08659, F247A); test: Bioluminescence emission scan; assay type: biochemical
T20 construct: The full firefly (Photinus pyralis) luciferase gene was PCR amplified from pGL3 (Promega); GST (N, cleaved yes); made in house; host or cells: E. coli JM109
Method: as §6, §2

T251S luciferase = target: T21, T251S luciferase (Photinus pyralis, UniProt P08659, T251S); test: Bioluminescence emission scan; assay type: biochemical
T21 construct: The full firefly (Photinus pyralis) luciferase gene was PCR amplified from pGL3 (Promega); GST (N, cleaved yes); made in house; host or cells: E. coli JM109
Method: as §6, §2

L286M luciferase = target: T22, L286M luciferase (Photinus pyralis, UniProt P08659, L286M); test: Bioluminescence emission scan; assay type: biochemical
T22 construct: The full firefly (Photinus pyralis) luciferase gene was PCR amplified from pGL3 (Promega); GST (N, cleaved yes); made in house; host or cells: E. coli JM109
Method: as §6, §2

[3] = read-out: Apparent Km, 3 minutes post-substrate addition

T3 sequence (P08659 whole entry T251S): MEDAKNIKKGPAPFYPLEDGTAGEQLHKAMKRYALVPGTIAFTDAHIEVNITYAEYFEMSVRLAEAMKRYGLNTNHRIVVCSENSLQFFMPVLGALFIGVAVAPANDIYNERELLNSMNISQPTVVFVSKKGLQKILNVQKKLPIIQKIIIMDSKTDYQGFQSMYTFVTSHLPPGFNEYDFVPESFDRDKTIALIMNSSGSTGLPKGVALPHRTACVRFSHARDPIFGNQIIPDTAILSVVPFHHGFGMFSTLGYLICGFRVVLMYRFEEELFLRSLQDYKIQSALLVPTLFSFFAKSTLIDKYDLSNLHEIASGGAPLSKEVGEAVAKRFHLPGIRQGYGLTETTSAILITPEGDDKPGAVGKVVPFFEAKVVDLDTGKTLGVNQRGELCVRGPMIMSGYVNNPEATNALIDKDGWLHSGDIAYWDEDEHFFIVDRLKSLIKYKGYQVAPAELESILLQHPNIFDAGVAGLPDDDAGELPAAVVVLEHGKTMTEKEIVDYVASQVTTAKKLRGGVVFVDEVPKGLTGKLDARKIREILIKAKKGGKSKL
T6 sequence (P08659 whole entry S347A): as the sequence (P08659 whole entry T251S) above, with S251T, S347A counted along it
T1 sequence (P08659 whole entry): as the sequence (P08659 whole entry T251S) above, with S251T counted along it
T5 sequence (P08659 whole entry R218K): as the sequence (P08659 whole entry T251S) above, with R218K, S251T counted along it
T4 sequence (P08659 whole entry L286M): as the sequence (P08659 whole entry T251S) above, with S251T, L286M counted along it
T7 sequence (P08659 whole entry S347A): as the sequence (P08659 whole entry T251S) above, with S251T, S347A counted along it
T12 sequence (P08659 whole entry S347T): as the sequence (P08659 whole entry T251S) above, with S251T, S347T counted along it
F247L mutant luciferase, sequence (P08659 whole entry F247L): as the sequence (P08659 whole entry T251S) above, with F247L, S251T counted along it
T19 sequence (P08659 whole entry T251N): as the sequence (P08659 whole entry T251S) above, with S251N counted along it
T21 sequence (P08659 whole entry T251S): as the sequence (P08659 whole entry T251S) above
T2 sequence (P08659 whole entry R218K/L342A): as the sequence (P08659 whole entry T251S) above, with R218K, S251T, L342A counted along it
T17 sequence (P08659 whole entry T251Q): as the sequence (P08659 whole entry T251S) above, with S251Q counted along it
T9 sequence (P08659 whole entry T251S/L286M): as the sequence (P08659 whole entry T251S) above, with L286M counted along it
T18 sequence (P08659 whole entry F247S): as the sequence (P08659 whole entry T251S) above, with F247S, S251T counted along it
T15 sequence (P08659 whole entry F247V): as the sequence (P08659 whole entry T251S) above, with F247V, S251T counted along it
T16 sequence (P08659 whole entry L286Y): as the sequence (P08659 whole entry T251S) above, with S251T, L286Y counted along it
T10 sequence (P08659 whole entry L342A): as the sequence (P08659 whole entry T251S) above, with S251T, L342A counted along it
T11 sequence (P08659 whole entry R218K): as the sequence (P08659 whole entry T251S) above, with R218K, S251T counted along it
T8 sequence (P08659 whole entry F247L/L286M): as the sequence (P08659 whole entry T251S) above, with F247L, S251T, L286M counted along it
T22 sequence (P08659 whole entry L286M): as the sequence (P08659 whole entry T251S) above, with S251T, L286M counted along it
T14 sequence (P08659 whole entry F247R): as the sequence (P08659 whole entry T251S) above, with F247R, S251T counted along it
T20 sequence (P08659 whole entry F247A): as the sequence (P08659 whole entry T251S) above, with F247A, S251T counted along it
T13 sequence (P08659 whole entry L286M/S347A): as the sequence (P08659 whole entry T251S) above, with S251T, L286M, S347A counted along it

Nc1ccc2nc(C3=N[C@@H](C(=O)O)CS3)sc2c1 [6′-NH2LH2, 6′-aminoluciferin]
Wavelength at Max. Emission (WT luciferase [1]): 595 nm
Maximum Emission Wavelength of Selected Substrate (WT luciferase [1]; Table 3): 594 nm
Maximum Emission Wavelength of Selected Substrate (R218K + L342A luciferase): 594 nm
Apparent Vmax (WT luciferase [2]): 35 ± 0.25 ×10^−5 cps
Apparent Vmax (T251S mutant luciferase): 51 ± 0.3 ×10^−5 cps
Apparent Vmax (L286M mutant luciferase): 62 ± 0.7 ×10^−5 cps
Apparent Vmax (R218K mutant luciferase): 157 ± 3.7 ×10^−5 cps
Apparent Vmax (S347A mutant luciferase): 91 ± 0.4 ×10^−5 cps
Wavelength at Max. Emission (S347A luciferase): 591 nm
Wavelength at Max. Emission (F247L L286M luciferase): 592 nm
Wavelength at Max. Emission (T251S L286M luciferase): 602 nm
Maximum Emission Wavelength of Selected Substrate (L342A luciferase): 591 nm
Maximum Emission Wavelength of Selected Substrate (R218K luciferase): 599 nm
Wavelength at Max. Emission (S347T luciferase): 583 nm
Maximum Emission Wavelength of Selected Substrate (L286M + S347A luciferase): 589 nm
improvement of maximal sustained light emission (F247L mutant luciferase): 4.9 fold and > 5 fold

O=C(O)[C@H]1CSC(c2nc3ccc(O)cc3s2)=N1 [D-Luciferin, D-luciferin]
Wavelength at Max. Emission (WT luciferase [1]): 554 nm
Apparent Vmax (WT luciferase [2]): 1079 ± 13 ×10^−5 cps
Apparent Vmax (T251S mutant luciferase): 1054 ± 19 ×10^−5 cps
Km (T251S mutant luciferase; [3]): 114 ± 3.4 µM
Apparent Vmax (L286M mutant luciferase): 1060 ± 26 ×10^−5 cps
Km (L286M mutant luciferase; [3]): 19.1 ± 1.3 µM
Apparent Vmax (R218K mutant luciferase): 1541 ± 21 ×10^−5 cps
Km (R218K mutant luciferase; [3]): 106 ± 2.6 µM
Apparent Vmax (S347A mutant luciferase): 142.8 ± 3 ×10^−5 cps
Km (S347A mutant luciferase; read-out: Apparent Km, purified protein, 3 minutes post-substrate addition): 76.6 ± 3.1 µM
Wavelength at Max. Emission (S347A luciferase): 573 nm
Wavelength at Max. Emission (F247R luciferase): 605 nm
Wavelength at Max. Emission (F247V luciferase): 600 nm
Wavelength at Max. Emission (L286Y luciferase): 606 nm
Wavelength at Max. Emission (T251Q luciferase): 626 nm
Wavelength at Max. Emission (F247S luciferase): 588 nm
Wavelength at Max. Emission (T251N luciferase): 555 nm
Wavelength at Max. Emission (S347T luciferase): 561 nm
Wavelength at Max. Emission (F247A luciferase): 591 nm
Wavelength at Max. Emission (T251S luciferase): 553 nm
Wavelength at Max. Emission (L286M luciferase): 564 nm
